Test results as given in paper PMC8409945, “In silico identification and experimental validation of cellular uptake and intracellular labeling by a new cell penetrating peptide derived from CDN1” (Drug Delivery, 2021).

Experiments:
HepG2 cells = experiment: Cellular uptake of FITC-labeled peptides, fluorescence microscopy and lysate fluorescence quantification; assay type: cell-based, human
Method: (§1) All cells (thawed cells were passaged less than 5 times) were suspended in 0.5 ml media and cultured in a 24-well plate at a concentration of 1.6 × 10^5 cells per well overnight. […] After incubation, the cells were washed with PBS three times and then imaged by fluorescence microscopy with 20 times lens (Nikon, Tokyo, Japan).
(§2) To determine the penetration efficiency of CPP, the cellular uptake of the indicated concentration of CPP was quantified by multimode spectrophotometry Peptide incubation. The washing step was the same as above, followed by cell lysate collection with 0.3 ml/well-lysing buffer (0.1 M NaOH) for 10 minutes, and then serially centrifuged at 110 g for 5 minutes. A plate-reader spectrophotometer (Tecan, Mannedorf, Switzerland) was used to quantify the fluorescence intensity of each well’s supernatant at the wavelengths of 485 nm in excitation and 535 nm in emission. The protein concentration of supernatant measured by Bradford assay was used to normalize fluorescence intensity. The fluorescence of cellular uptake was expressed as intensity per mg of total cellular protein. Experiments of quantification indicated in this paper were repeated at least three times.

cells = experiment: Cellular uptake of FITC-labeled peptides: comparison of CPPs, temperature and inhibitors (cell line not stated); assay type: cell-based; conditions: 1 h
Method: as §1, §2

[1] = Peptide aggregation assay by native PAGE; assay type: physicochemical; conditions: 4 µl peptide 500 µM in PBS, 6.5% native PAGE; Figure S5(B)

Method for mouse erythrocytes: Mouse erythrocytes free of plasma components were isolated and purified from mouse blood by centrifugation and wash. […] A value of 100% cell lysis was measured by the incubation of erythrocytes incubated with 0.1% Triton X-100.

What does the source list for “FITC-(Acp)-RKRRQTSMTDFYHSKRRLIFSKRK [P2]”?
Fluorescence microscopy and normalized fluorescence intensity versus incubation time (HepG2 cells): significantly increased with incubation time; Penetrating efficiency at different temperature (cells; FITC-P2 5 µM, different temperature, 3 replications, Figure 5(A,B)): temperature dependent; Penetration efficiency in the presence of endocytosis-related inhibitors (cells; FITC-P2 5 µM, NaN3, NH4Cl, Heparin, Serum, MβCD, Wortmannin, hyperosmotic sucrose, Chlorpromazine, EIPA, 3 replications, Figure 5(C,D)): significantly decrease; Penetration in the presence of wortmannin and hyperosmotic sucrose (cells; FITC-P2 5 µM, wortmannin and hyperosmotic sucrose, Figure 5(C,D)): slightly blocked; Penetration efficiency compared with well-known CPPs (cells; FITC-labeled peptides 5 µM, microscopy and fluorescence intensity normalized to protein, 3 replications, Figure 4(C,D)): higher penetration efficiency than MT23 but lower than TAT and hPP10 and Dot1l; Aggregation propensity by native PAGE [1]: a single band of P2 and without apparent aggregation; Red blood cell membrane damage (hemolysis) (mouse erythrocytes): did not observe red blood cell membrane damage
